Assay results as given in patent US20110178104A1, “Anti-Heparin Compounds” (POLYMEDIX INC., priority 2010, published 2011).

Columns and labels:
Unfractionated heparin = test: aPTT clotting assay, UFH 0.4 U/mL in plasma (Example 10); format: biochemical; conditions: unfractionated heparin 0.4 U/mL in plasma; aPTT clotting
Protocol: aPTT clotting Assay: Unfractionated heparin was mixed with plasma at a final concentration of 0.4 U/mL (or concentration which increases aPTT time to between 120 and 300 seconds). […] The ACL Elite Hemostasis analyzer (Beckman Coulter™) was used to add aPTT reagent (HemosIL SynthASil) to supplemented plasma. Clotting was initiated by addition of CaCl2 and time to clot was recorded.

enoxaparin = test: FXa amidolytic assay (Example 10), enoxaparin; conditions: read-out: Enox FXa EC50; enoxaparin 0.1 ug/ml; human antithrombin, bovine Factor Xa
Protocol: (§1) Two μl of test agent are added (range between 0.01 and 23 ug/ml) and incubated for 5 minutes at 23° C. Bovine Factor Xa was added to a final concentration of 0.636 nkat/mL and incubated for a further 10 minutes at 23° C.

fondaparinux = test: FXa amidolytic assay (Example 10), fondaparinux; conditions: read-out: Fondap FXa EC50; fondaparinux 0.02 μg/mL; human antithrombin, bovine Factor Xa
Protocol: as §1

tinzaparin = test: FXa amidolytic assay (Example 10), tinzaparin; conditions: read-out: Tinzap FXa EC50; tinzaparin 0.1 ug/ml; human antithrombin, bovine Factor Xa
Protocol: as §1

COc1ccc(NC(=O)[C@H](CCCCN)NC(=O)c2cc(NC(=O)[C@H](C)NC(=O)c3cc(NC(=O)[C@H](CCCCN)NC(=O)c4cc(NC(=O)[C@@H](N)CCCCN)ccc4OC)ccc3OC)ccc2OC)cc1C(N)=O [Compound 201]
EC50 (Unfractionated heparin): 6000 nM | EC50 (enoxaparin): 974 nM

COc1ccc(NC(=O)[C@H](CCCCN)NC(=O)c2cc(NC(=O)[C@H](CCCCN)NC(=O)c3cc(NC(=O)[C@H](C)NC(=O)c4cc(NC(=O)[C@@H](N)CCCCN)ccc4OC)ccc3OC)ccc2OC)cc1C(N)=O [Compound 202]
EC50 (Unfractionated heparin): 4550 nM | EC50 (enoxaparin): 398 nM

COc1ccc(NC(=O)[C@H](CCCNC(=N)N)NC(=O)c2cc(NC(=O)[C@H](CCCCN)NC(=O)c3cc(NC(=O)[C@H](CCCCN)NC(=O)c4cc(NC(=O)[C@@H](N)CCCCN)ccc4OC)ccc3OC)ccc2OC)cc1C(N)=O [Compound 203]
EC50 (Unfractionated heparin): 2990 nM | EC50 (enoxaparin): 283 nM

COc1ccc(NC(=O)[C@H](CCCCN)NC(=O)c2cc(NC(=O)[C@H](CCCNC(=N)N)NC(=O)c3cc(NC(=O)[C@H](CCCCN)NC(=O)c4cc(NC(=O)[C@@H](N)CCCCN)ccc4OC)ccc3OC)ccc2OC)cc1C(N)=O [Compound 204]
EC50 (Unfractionated heparin): 3020 nM | EC50 (enoxaparin): 239 nM

COc1ccc(NC(=O)[C@H](CCCCN)NC(=O)c2cc(NC(=O)[C@H](CCCCN)NC(=O)c3cc(NC(=O)[C@H](CCCNC(=N)N)NC(=O)c4cc(NC(=O)[C@@H](N)CCCCN)ccc4OC)ccc3OC)ccc2OC)cc1C(N)=O [Compound 205]
EC50 (enoxaparin): 202 nM

COc1ccc(NC(=O)[C@H](CCCCN)NC(=O)c2cc(NC(=O)[C@H](CCCCN)NC(=O)c3cc(NC(=O)[C@H](CCCCN)NC(=O)c4cc(NC(=O)[C@@H](N)CCCNC(=N)N)ccc4OC)ccc3OC)ccc2OC)cc1C(N)=O [Compound 206]
EC50 (Unfractionated heparin): 1960 nM | EC50 (enoxaparin): 148 nM

COc1ccc(NC(=O)[C@@H](CCCNC(=N)N)NC(=O)c2cc(NC(=O)[C@@H](CCCNC(=N)N)NC(=O)c3cc(NC(=O)[C@@H](CCCNC(=N)N)NC(=O)c4cc(NC(=O)[C@H](N)CCCNC(N)=O)ccc4OC)ccc3OC)ccc2OC)cc1C(N)=O [Compound 207]
EC50 (enoxaparin): 39 nM

COc1ccc(C(N)=O)cc1NC(=O)[C@@H](CCCNC(=N)N)NC(=O)c1cc(NC(=O)[C@@H](CCCNC(=N)N)NC(=O)c2cc(NC(=O)[C@@H](CCCNC(=N)N)NC(=O)c3cc(NC(=O)[C@H](N)CCCNC(=N)N)ccc3OC)ccc2OC)ccc1OC [Compound 210]
EC50 (Unfractionated heparin): 2550 nM | EC50 (enoxaparin): 82 nM | EC50 (fondaparinux): 1400 nM

COc1ccc(NC(=O)[C@@H](CCCNC(=N)N)NC(=O)c2cc(NC(=O)[C@@H](CCCNC(=N)N)NC(=O)c3cccc(NC(=O)[C@@H](CCCNC(=N)N)NC(=O)c4cc(NC(=O)[C@H](N)CCCNC(=N)N)ccc4OC)n3)ccc2OC)cc1C(N)=O [Compound 211]
EC50 (Unfractionated heparin): 5900 nM | EC50 (enoxaparin): 137 nM | EC50 (fondaparinux): 2870 nM

COc1ccc(NC(=O)[C@@H](CCCNC(=N)N)NC(=O)c2cc(NC(=O)[C@@H](CCCNC(=N)N)NC(=O)c3cc(NC(=O)[C@@H](CCCNC(=N)N)NC(=O)c4cccc(NC(=O)[C@H](N)CCCNC(=N)N)c4)ccc3OC)ccc2OC)cc1C(N)=O [Compound 212]
EC50 (Unfractionated heparin): 883 nM | EC50 (enoxaparin): 73 nM | EC50 (fondaparinux): 259 nM

COc1ccc(NC(=O)[C@H](CCCCN)NC(=O)c2cc(NC(=O)[C@H](CCCCN)NC(=O)c3cc(NC(=O)[C@@H](N)CCCCN)ccc3OC)ccc2OC)cc1C(=O)N[C@@H](CCCCN)C(=O)Nc1cccc(C(N)=O)c1 [Compound 213]
EC50 (Unfractionated heparin): 893 nM | EC50 (enoxaparin): 78 nM | EC50 (fondaparinux): 354 nM

COc1ccc(NC(=O)[C@H](CCCCN)NC(=O)c2cccc(NC(=O)[C@H](CCCCN)NC(=O)c3cc(NC(=O)[C@H](CCCCN)NC(=O)c4cc(NC(=O)[C@@H](N)CCCCN)ccc4OC)ccc3OC)c2)cc1C(N)=O [Compound 214]
EC50 (Unfractionated heparin): 1910 nM | EC50 (enoxaparin): 87 nM | EC50 (fondaparinux): 432 nM

COc1ccc(NC(=O)[C@H](CCCCN)NC(=O)c2cc(NC(=O)[C@H](CCCCN)NC(=O)c3cccc(NC(=O)[C@H](CCCCN)NC(=O)c4cc(NC(=O)[C@@H](N)CCCCN)ccc4OC)c3)ccc2OC)cc1C(N)=O [Compound 215]
EC50 (Unfractionated heparin): 2850 nM | EC50 (enoxaparin): 73 nM | EC50 (fondaparinux): 288 nM

COc1ccc(NC(=O)[C@H](CCCCN)NC(=O)c2cc(NC(=O)[C@H](CCCCN)NC(=O)c3cc(NC(=O)[C@H](CCCCN)NC(=O)c4cccc(NC(=O)[C@@H](N)CCCCN)c4)ccc3OC)ccc2OC)cc1C(N)=O [Compound 216]
EC50 (Unfractionated heparin): 1220 nM | EC50 (enoxaparin): 347 nM | EC50 (tinzaparin): 191 nM | EC50 (fondaparinux): 7870 nM

CCOc1ccc(NC(=O)[C@@H](CCCNC(=N)N)NC(=O)c2cc(NC(=O)[C@@H](CCCNC(=N)N)NC(=O)c3cc(NC(=O)[C@@H](CCCNC(=N)N)NC(=O)c4cc(NC(=O)[C@H](N)CCCNC(=N)N)ccc4OC)ccc3OC)ccc2OC)cc1C(N)=O [Compound 217]
EC50 (Unfractionated heparin): 1120 nM | EC50 (enoxaparin): 74 nM | EC50 (fondaparinux): 252 nM

CCOc1ccc(NC(=O)[C@@H](CCCNC(=N)N)NC(=O)c2cc(NC(=O)[C@H](N)CCCNC(=N)N)ccc2OC)cc1C(=O)N[C@H](CCCNC(=N)N)C(=O)Nc1ccc(OC)c(C(=O)N[C@H](CCCNC(=N)N)C(=O)Nc2ccc(OC)c(C(N)=O)c2)c1 [Compound 218]
EC50 (Unfractionated heparin): 853 nM | EC50 (enoxaparin): 74 nM | EC50 (fondaparinux): 176 nM

COc1cc(OC)c(C(=O)N[C@H]2CC[C@H](NC(=O)c3cc(C(=O)N[C@H]4CC[C@H](NC(=O)c5cc(C(=O)NCCN(C)C)c(OC)cc5OC)CC4)c(OCCCCCNC(=N)N)cc3OCCCCCNC(=N)N)CC2)cc1C(=O)NCCN(C)C [Compound 220]
EC50 (Unfractionated heparin): 5450 nM | EC50 (enoxaparin): 125 nM

COc1cc(OC)c(C(=O)N[C@H]2CC[C@H](NC(=O)c3cc(C(=O)NCCN(C)C)c(OCCCCCNC(=N)N)cc3OCCCCCNC(=N)N)CC2)cc1C(=O)N[C@H]1CC[C@@H](NC(=O)c2cc(C(=O)NCCN(C)C)c(OCCCCCNC(=N)N)cc2OCCCCCNC(=N)N)CC1 [Compound 222]
EC50 (Unfractionated heparin): 2590 nM | EC50 (enoxaparin): 173 nM | EC50 (tinzaparin): 115 nM | EC50 (fondaparinux): 955 nM

COc1ccc(NC(=O)[C@H](CCCNC(=N)N)NC(=O)c2cc(NC(=O)[C@H](CCCNC(=N)N)NC(=O)c3cc(NC(=O)[C@H](CCCNC(=N)N)NC(=O)c4cc(NC(=O)[C@H](C)NC(=O)CCCCNC(=N)N)ccc4OC)ccc3OC)ccc2OC)cc1C(N)=O [Compound 223]
EC50 (Unfractionated heparin): 4090 nM | EC50 (enoxaparin): 316 nM | EC50 (tinzaparin): 248 nM | EC50 (fondaparinux): 802 nM

COc1cc(OC)c(C(=O)N[C@H]2CC[C@@H](NC(=O)c3cc(C(=O)NCCN(C)C)c(OCCNC(=N)N)cc3OCCNC(=N)N)CC2)cc1C(=O)N[C@H]1CC[C@@H](NC(=O)c2cc(C(=O)NCCN(C)C)c(OCCNC(=N)N)cc2OCCNC(=N)N)CC1 [Compound 225]
EC50 (Unfractionated heparin): 12100 nM | EC50 (enoxaparin): 1060 nM | EC50 (tinzaparin): 359 nM

COc1cc(OC)c(C(=O)N[C@H]2CC[C@H](NC(=O)c3cc(C(=O)NCCN(C)C)c(OCCNC(=N)N)cc3OCCNC(=N)N)CC2)cc1C(=O)N[C@H]1CC[C@H](NC(=O)c2cc(C(=O)NCCN(C)C)c(OCCNC(=N)N)cc2OCCNC(=N)N)CC1 [Compound 226]
EC50 (Unfractionated heparin): 12900 nM | EC50 (enoxaparin): 852 nM | EC50 (tinzaparin): 343 nM

CN(C)CCNC(=O)c1cc(C(=O)NC2CCC(NC(=O)c3cc(C(=O)NCCN(C)C)c(OCCCCCN)cc3OCCCCCN)CC2)c(OCCCCCN)cc1OCCCCCN (stereo not shown) [Compound 227]
EC50 (Unfractionated heparin): > 10000 nM

COc1ccc(NC(=O)[C@@H](CCCNC(=N)N)NC(=O)CCCCNC(=N)N)cc1C(=O)N[C@H](CCCNC(=N)N)C(=O)Nc1ccc(OC)c(C(=O)N[C@H](CCCNC(=N)N)C(=O)Nc2ccc(OC)c(C(=O)N[C@H](CCCNC(=N)N)C(=O)Nc3ccc(OCCNC(=N)N)c(C(N)=O)c3)c2)c1 [Compound 291]
EC50 (Unfractionated heparin): 2480 nM | EC50 (enoxaparin): 47 nM | EC50 (fondaparinux): 1180 nM

COc1ccc(NC(=O)[C@H](CCCCN)NC(=O)c2cc(NC(=O)[C@H](CCCCN)NC(=O)c3cc(NC(=O)[C@H](CCCCN)NC(=O)c4cc(NC(=O)[C@H](CCCCN)NC(=N)N)ccc4OC)ccc3OC)ccc2OC)cc1C(N)=O [Compound 292]
EC50 (enoxaparin): 450 nM | EC50 (fondaparinux): 4790 nM

COc1ccc(NC(=O)[C@@H](CCCCN)NC(=O)c2c(OC)ccc(NC(=O)[C@@H](CCCCN)NC(=O)c3c(OC)ccc(NC(=O)[C@@H](CCCCN)NC(=O)c4c(OC)ccc(NC(=O)[C@H](N)CCCCN)c4OC)c3OC)c2OC)c(OC)c1C(N)=O [Compound 293]
EC50 (enoxaparin): > 10000 nM | EC50 (fondaparinux): > 10000 nM

CCOC(=O)CC(=O)N[C@@H](CCCCN)C(=O)Nc1ccc(OC)c(C(=O)N[C@@H](CCCCN)C(=O)Nc2ccc(OC)c(C(=O)N[C@@H](CCCCN)C(=O)Nc3ccc(OC)c(C(=O)N[C@@H](CCCCN)C(=O)Nc4ccc(OC)c(C(N)=O)c4)c3)c2)c1 [Compound 337]
EC50 (enoxaparin): 225 nM | EC50 (tinzaparin): 174 nM | EC50 (fondaparinux): 1830 nM

COC(=O)CCC(=O)N[C@@H](CCCCN)C(=O)Nc1ccc(OC)c(C(=O)N[C@@H](CCCCN)C(=O)Nc2ccc(OC)c(C(=O)N[C@@H](CCCCN)C(=O)Nc3ccc(OC)c(C(=O)N[C@@H](CCCCN)C(=O)Nc4ccc(OC)c(C(N)=O)c4)c3)c2)c1 [Compound 338]
EC50 (enoxaparin): 241 nM | EC50 (tinzaparin): 176 nM | EC50 (fondaparinux): 2750 nM

COC(=O)CCCC(=O)N[C@@H](CCCCN)C(=O)Nc1ccc(OC)c(C(=O)N[C@@H](CCCCN)C(=O)Nc2ccc(OC)c(C(=O)N[C@@H](CCCCN)C(=O)Nc3ccc(OC)c(C(=O)N[C@@H](CCCCN)C(=O)Nc4ccc(OC)c(C(N)=O)c4)c3)c2)c1 [Compound 341]
EC50 (enoxaparin): 198 nM | EC50 (tinzaparin): 138 nM | EC50 (fondaparinux): 1580 nM

COc1ccc(NC(=O)[C@H](CCCCN)NC(=O)c2cc(NC(=O)[C@H](CCCCN)NC(=O)c3cc(NC(=O)[C@H](CCCCN)NC(=O)c4cc(NC(=O)[C@H](CCCCN)NC(=O)c5ccccc5C(=O)O)ccc4OC)ccc3OC)ccc2OC)cc1C(N)=O [Compound 343]
EC50 (enoxaparin): 235 nM | EC50 (tinzaparin): 201 nM | EC50 (fondaparinux): 932 nM
